Where “and” joins values, the source holds several entries; their conditions need not be identical. Identical values can stand only once.
Key:
[1] = tested on: tyrosine aminotransferase (TAT) in mice liver; assay: TAT induction in mice liver; format: in vivo; conditions: for TAT-induction ± S.E.M.: mice liver, 8 hours after administration
Procedure: (§1) Female albino mice (Han:NMRI) obtained form Harlan and weighing about 20-25 g were used. The animals were provided with standardized pellet diet (Altromin 8013) and had tap water freely available. The animals were accommodated in a climate room with a 12-hour light/dark cycle and kept in groups.
(§2) All test compounds were administered orally (0.2 ml/10 g body weight (bw) ) in a dose of 100 mg/kg p.o. The compounds were “dissolved” in 0.2% hydroxypropylmethylcellulose and olive oil mixed 1:1 (v/v).
Eight hours after compounds were administered the animals were killed and a punch (diameter 8 mm) was taken from the liver and immediately frozen in liquid nitrogen. The weighed liver punches were thawed for 3 minutes and homogenized after the addition 1 ml of phosphate buffer (pH 7.6) using a tissue homogenizer as described above. After centrifugation the supernatants were frozen at −20° C. until processing. For processing the samples were thawed and protein was determined using a kit employing 96 well microtiterplates commercially available from Fa. Pierce (No 23225). The activity of tyrosineaminotransferase (TAT) was determined in the supernatant, which was diluted 1:100 in phosphate buffer. The reaction is started by the addition of tyrosine in pyrodoxal-5-phosphate and α ketoglutaric acid at pH 7.6 and incubated for 30 minutes at 37° C. The reaction is stopped by the addition of 10 M KOH and a further incubation of 30 minutes is allowed for the formation of p-hydroxy-benzylaldehyde, which can be measured at 492 nm using a microplate reader. The values (optical densities) are calculated with respect to the protein concentration (O.D./mg protein) (Table 1a and b).

[2] = tested on: PMA-induced neutrophils influx in mice ear; assay: PMA-induced ear edema in mice (myeloperoxidase); format: in vivo; conditions: for Myeloperoxidase (treated-untreated ear) ± S.E.M.: 24 hours after PMA
Procedure: as §1, §2
Mice were lightly anaesthetized by ether and 50 ng PMA (5 μl) were applied to each side of the left ear. […] The animals were sacrificed by ether 24 hours later, and a biopsy (diameter 8 mm) was punched out from both ears to assess an increase of neutrophils in the left ear compared with the right ear. Tissue samples were homogenized in 1 ml 0.5% HTAB (Hexadecyl-trimethyl-ammonium-bromide; Sigma H-5882; dissolved in 0.05 M phosphate buffer, pH 6.0) using a tissue homogenizer (IKA-Ultraturrax T5; Janke & Kunkel, Staufen/Breisgau) at 30000 RPM for 15 seconds under cooling. After centrifugation (16000 g, 5 min) the supernatants were frozen until processing for myeloperoxidase (MPO). Determination in the supernatants for MPO, a neutrophil marker enzyme, served as a quantitative index for the neutrophil accumulation. MPO was determined spectrophotometrically at 450 nm using a microplate version of the method of Bradley (1982) and microplate reader (Vmax; Molecular Devices, Palo Alto) suitable for kinetic measurements. The values are expressed as increase in milli optical densities per min (m O.D./min) (Table 1a and b).

[3] = biological target: recombinant human GR (Homo sapiens, UniProt P04150); assay: GR Competitive Binding Assay; conditions: after correction for compound determined to be in solution by HPLC analysis; read-out: IC50, competition with [6,7-3H(N)]-dexamethasone for binding to GR
Procedure: All procedures were performed at 4° C.
Test compounds were dissolved to 1 mM in neat DMSO and then further diluted to 10×assay concentration in assay buffer supplemented with 10% v/v DMSO.

[4] = tested on: ICAM-promoter in HeLa cells; assay: Inhibition of TNF-α induced activation of the ICAM-promoter (luciferase) in HeLa cells; format: cell-based, human; conditions: 20 ng/ml TNF-α
Procedure: HeLa cells were stably co-transfected with a construct containing a 1.3 kb fragment of the human ICAM-promoter (−1353 to −9 relative to the transcription start site, cloned in front of the luciferase gene and the pcDNA3.1 plasmid (Invitrogen) which constitutively express the resistance for the antibioticum geneticin. Clones with best induction of the ICAM-promoter were selected and used for further experiments. Cells were transferred to 96 well plates (20,000 cells/100 μl/well) in DMEM medium supplemented with 3% CCS. On the following day the activation of the ICAM-promoter was induced by addition of 20 ng/ml recombinant TNF-α (R&D System, Cat. No. 210-TA). […] Control cells were treated with DMSO only. Twenty four hours later the cells were lysed with cell lysis reagent (Promega, Cat. No. E1531), luciferase assay reagent (Promega, Cat. No. E1501) was added and flash luminescence was measured using a BMG luminometer (FIG. 6a).
The steroidal not dissociated GR/PR antagonist RU486 was used as control (FIG. 6b).

[5] = tested on: tyrosine aminotransferase (TAT) in rat hepatoma cells; assay: Induction of tyrosine aminotransferase (TAT) in H4-II-E-C3 rat hepatoma cells; format: cell-based
Procedure: H4-II-E-C3 rat hepatoma cells were incubated overnight in 96 well plates (20,000 cells/200 μl/well) in EMEM medium containing 10% heat inactivated FBS (fetal bovine serum). […] Control cells were treated with 0.1% DMSO. After 18 hours, the cells were lysed in a buffer containing 0.1% Triton X-100 and the TAT activity was measured in a photometric assay using tyrosine and -keto g lutarate as substrates (FIG. 3a).
The steroidal not dissociated GR/PR antagonist RU486 was used as control (FIG. 3b).

[6] = tested on: LPS-induced IL-8 secretion in U-937 cells; assay: GR-mediated inhibition of LPS-induced IL-8 secretion in U-937 cells; format: cell-based, human; conditions: 1 μg/ml LPS
Procedure: U-937 cells were incubated for 4 days in RPM11640 medium containing 10% CCS (charcoal treated calf serum). […] Control cells were treated with 0.1% DMSO.
Eighteen hours later the IL-8 concentration in the cell supernatant was measured by ELISA, using the “OptEIA human IL-8 set” (Pharmingen, Cat.No. 2654KI) (FIG. 5a).
The steroidal not dissociated GR/PR antagonist RU486 was used as control (FIG. 5b).

[7] = tested on: MMTV-(mouse mammary tumor virus) promoter in HeLa cells; assay: Stimulation of MMTV promoter (luciferase) in HeLa cells; format: cell-based
Procedure: HeLa cells stably co-transfected with the pHHLuc-construct containing a fragment of the MMTV-LTR (−200 to +100 relative to the transcription start site) cloned in front of the luciferase gene and the pcDNA3.1 plasmid (Invitrogen) constitutively expressing the resistance for the antibioticum geneticin. Clones with best induction of the MMTV-promoter were selected and used for further experiments.
Cells were cultured overnight in DMEM medium w/o phenol red supplemented with 3% CCS (charcoal treated calf serum) and then transferred to 96 well plates (20,000 cells/100 μl/well). […] Control cells were treated with DMSO only. Twenty four hours later the cells were lysed with cell lysis reagent (Promega, Cat. No. E1531), luciferase assay reagent (Promega, Cat. No. E1501) was added and the flash luminescence was measured using a BMG luminometer (FIG. 4a).
The steroidal non-selective GR/PR antagonist RU486 was used as control (FIG. 4b).

[8] = tested on: croton-oil induced ear edema, carrageenan-induced paw edema; systemic side-effects of glucocorticoids; assay: In vivo co-administration with dexamethasone or prednisolone in inflammation models
[9] = co-administered with prednisolone, each 100 mg/kg p.o.

recombinant human GR, sequence (P04150 whole entry, other chains not shown): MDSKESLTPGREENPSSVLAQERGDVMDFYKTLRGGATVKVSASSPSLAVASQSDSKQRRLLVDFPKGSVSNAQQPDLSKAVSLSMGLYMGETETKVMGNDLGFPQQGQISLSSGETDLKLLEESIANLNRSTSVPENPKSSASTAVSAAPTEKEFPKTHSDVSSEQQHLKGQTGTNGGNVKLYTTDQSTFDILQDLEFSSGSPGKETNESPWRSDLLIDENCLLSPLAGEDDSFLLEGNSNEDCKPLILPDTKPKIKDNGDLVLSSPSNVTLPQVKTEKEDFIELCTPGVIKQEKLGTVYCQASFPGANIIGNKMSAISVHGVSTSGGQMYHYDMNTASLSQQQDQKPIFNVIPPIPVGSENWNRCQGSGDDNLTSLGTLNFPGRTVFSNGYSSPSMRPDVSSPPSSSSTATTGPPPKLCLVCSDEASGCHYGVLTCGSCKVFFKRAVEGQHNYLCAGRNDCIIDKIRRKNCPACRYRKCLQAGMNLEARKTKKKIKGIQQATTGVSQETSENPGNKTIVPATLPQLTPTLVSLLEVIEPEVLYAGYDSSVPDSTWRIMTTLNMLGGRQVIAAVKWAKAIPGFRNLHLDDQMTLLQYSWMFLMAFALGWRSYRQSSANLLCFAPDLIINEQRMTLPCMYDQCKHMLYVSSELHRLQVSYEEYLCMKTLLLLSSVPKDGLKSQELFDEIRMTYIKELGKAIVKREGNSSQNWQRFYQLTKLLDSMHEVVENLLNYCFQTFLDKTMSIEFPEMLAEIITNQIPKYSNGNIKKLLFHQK

Structure (SMILES)	TAT-induction ± S.E.M. ([1]; compound alone 100 mg/kg p.o.)	Myeloperoxidase (treated-untreated ear) ± S.E.M. ([2]; compound alone 100 mg/kg p.o.)	IC50 [3]	agonistic activity in inhibition of TNF-α induced activation of the ICAM-promoter ([4]; 24 hours)	antagonistic activity in inhibition of TNF-α induced activation of the ICAM-promoter ([4]; inhibited with 3e-8 mol/l dexamethasone)	antagonistic activity on dexamethasone-induced TAT-induction ([5]; rat hepatoma cells pre-stimulated with dexamethasone 3e-9 mol/l)	agonistic activity in induction of tyrosine aminotransferase (TAT) ([5]; rat hepatoma cells, 18 hours)	agonistic activity in GR-mediated inhibition of LPS-induced IL-8 secretion ([6]; 18 hours)	antagonistic activity in GR-mediated inhibition of LPS-induced IL-8 secretion ([6]; IL-8 secretion inhibited with 3e-8 mol/l dexamethasone)	antagonism of the prednisolone-induced induction of tyrosine aminotransferase in liver ([1]; 100 mg/kg p.o., mice)	TAT-induction ± S.E.M. [1, 9]	antagonism of the anti-inflammatory effect of prednisolone in the ear inflammation model ([2]; 100 mg/kg p.o.)	Myeloperoxidase (treated-untreated ear) ± S.E.M. [2, 9]	antagonistic activity in stimulation of MMTV promoter ([7]; HeLa cells pre-stimulated with 3e-8 mol/l dexamethasone)	agonistic activity in stimulation of MMTV promoter ([7]; HeLa cells, 24 hours)	systemic side-effect of the glucocorticoids (TAT in liver, blood glucose, free fatty acids level, renal function) ([8]; co-administration with dexamethasone or prednisolone)	anti-inflammatory activity of the glucocorticoid on co-administration ([8]; co-administration with dexamethasone or prednisolone in inflammation models)
C[C@]12C=CC(=O)C=C1CC[C@@H]1[C@@H]2[C@@H](O)C[C@@]2(C)[C@H]1CC[C@]2(O)C(=O)CO [Prednisolone]	17.75 ± 0.86 O.D./mg protein and 13.45 ± 0.93 O.D./mg protein	48 ± 13 mO.D./min and 34 ± 17 mO.D./min															
COc1cc(C(=O)c2cccc(C)c2)c(Oc2c(Br)cc(CC(=O)O)cc2Br)cc1C(C)C [EXRS1370SE]	3.85 ± 0.43 O.D./mg protein	443 ± 90 mO.D./min	69 nM	no agonistic	no antagonistic activity	shows antagonistic activity	does not show agonistic activity	no agonistic	no antagonistic activity	can antagonize significantly	12.00 ± 1.26 O.D./mg protein	does not significantly antagonize	140 ± 47 mO.D./min	antagonistic activity	no agonistic	no/reduced a systemic side-effect	retain the anti-inflammatory activity of the glucocorticoid
CC#C[C@]1(O)CC[C@H]2[C@@H]3CCC4=CC(=O)CCC4=C3[C@@H](c3ccc(N(C)C)cc3)C[C@@]21C [Mifepristone, 11-[4-Dimethylamino]phenyl-17-hydroxy-17[1-propynyl]estra-4,9-dien-3-one]	4.62 ± 0.36 O.D./mg protein	931 ± 261 mO.D./min									6.60 ± 0.38 O.D./mg protein		1565 ± 435 mO.D./min				
